In patent US20260166182A1, “CYANINE-BASED FLUOROPHORES” (The General Hospital Corporation, priority 2022, published 2026):

Tested on: pancreatic ductal adenocarcinoma (PDAC; Pan02 cell)
Experiment: NIR-II fluorescence imaging of subcutaneous PDAC tumor-bearing C57BL/6 mice
Format: in vivo, mouse
Text: General NIR-II fluorescence imaging: A 640×512-pixel InGaAs camera (Ninox640, Raptor Photonics) and macro zoom lens (0-10×; Navitar Zoom 7000 with SWIR coating) along with 900, 1070, 1100, and 1200 nm long-pass (LP) filters from either Thorlab or Edmund optics were used to collect the NIR-II signal. InGaAs camera played a role as an open-air imaging system along with the support of the FLARE system. An 808 nm fiber-coupled diode laser ([…] at the sample) was used as an excitation source. Data acquisition was done using in-house developed software. The mice fur on the region of interest was shaved prior to imaging using a clipper and removed completely using a depilatory cream. 100 μL of SH1 in 5 w/v % BSA saline ([…]) was injected through the tail vein. Mice were imaged with intact skin using InGaAs camera. At least 3 mice were analyzed for each sample. […]
Statistical analysis: The fluorescence and background intensities of a region of interest over each tissue were quantified using customized imaging software and ImageJ v1.48 (National Institutes of Health, Bethesda, MD). The signal-to-background ratio (SBR) was calculated as SBR=fluorescence/background, where background was the fluorescence intensity of muscle. […] The differences among groups were determined using one-way ANOVA analysis to assess the statistical differences among more than two groups. […]

## CCCCN1/C(=C/C=C2\CCCC(/C=C/C3=[N+](CCCC)c4ccc(Cl)cc4C3(C)C)=C2Cl)C(C)(C)c2cc(Cl)ccc21 [SH1, 1-butyl-2-((E)-2-((E)-3-(2-((E)-1-butyl-5-chloro-3,3-dimethylindolin-2-ylidene)ethylidene)-2-chlorocyclohex-1-en-1-yl)vinyl)-5-chloro-3,3-dimethyl-3H-indol-1-ium]
PDAC less than 5 mm in size, compared to healthy tissue
  TBR: ~9.5
intravenous, until 24 h post-injection
  onset of signals in the cancerous region: did not appear at early time points
